# Source: patent publication US11026880B2, “Extract of passionflower seeds and cosmetic, pharmaceutical, dermatological and nutraceutical compositions comprising same” (Laboratoires Expanscience, priority 2012, dated 2021)
# Legend:
# [1] = tested on: Normal human keratinocytes; assay: Production of reactive oxygen species in keratinocytes under H2O2 stress (DCFH-DA probe); format: cell-based; conditions: for Amount of ROS DFU/OD540 (mean ± standard deviation): 24 hours preincubation, 100 μM H2O2 20 minutes
# Description: The antioxidant action of passionflower hydrolysate on oxidative stress generated by hydrogen peroxide (H2O2) in keratinocytes was evaluated by measuring the amount of reactive oxygen species produced. This test is based on the use of a probe (DCFH-DA) that breaks down and fluoresces in contact with reactive oxygen species (ROS). The fluorescence emitted will be thus proportional to the amount of ROS produced by the cell in response to oxidative stress. Normal human keratinocytes were preincubated for 24 hours in the presence of passionflower hydrolysate or the reference molecules: 10 μM quercetin or 500 μM vitamin C. The cells were then incubated for 1 hour in the presence of the probe DCFH-DA and then treated with 100 μM H2O2 for 20 minutes, still in the presence of passionflower hydrolysate or the reference molecules. The ROS assay was carried out by measuring the fluorescence emitted. The results were normalized to the number of living cells determined using a neutral red uptake assay carried out in parallel. The amount of ROS emitted is thus expressed as fluorescence density (DFU)/optical density resulting from the neutral red assay (OD540). The results were statistically analyzed by one-way analysis of variance followed by Tukey's test.
# Jurkat cells = assay: Lipid peroxidation in UV-irradiated Jurkat cells (C11-fluorine probe, flow cytometry); format: cell-based; conditions: UV + 50 μM BHT
# Description: The protective effect of passionflower hydrolysate on lipid peroxidation was evaluated in UV-irradiated Jurkat cells.
# Jurkat cells were incubated for 45 minutes in the presence or absence of passionflower hydrolysate or the reference (50 μM BHT) and in the presence of the fluorescent probe specific for the measurement of lipid peroxides (C11-fluorine). This fluorescent probe is a lipid analog that integrates into membranes and whose fluorescence intensity decreases when peroxidized. The cells were then irradiated by UV (UVB 240 mJ/cm^2+UVA 3.5 J/cm^2) in the presence of passionflower hydrolysate or the reference. At the conclusion of the irradiation, the cells were incubated for 30 minutes at 37° C. prior to being analyzed by flow cytometry. The fluorescence intensity results obtained were expressed as a % of the irradiated control.
structure (smiles),measurement,setting,value
"O=C1O[C@H]([C@@H](O)CO)C(O)=C1O [Vitamin C, vitamin C]",Amount of ROS DFU/OD540 (mean ± standard deviation),[1]; 500 μM vitamin C,35997.820 ± 10389.067 DFU/OD540
same,inhibition at 500 µM,"[1]; Homo sapiens, Keratinocyte, 500 μM vitamin C, 100 μM H2O2, read-out: Inhibition relative to the H2O2 control (ROS)",87%
Cc1cc(C(C)(C)C)c(O)c(C(C)(C)C)c1 [BHT],Protection (%) against lipid peroxidation,Jurkat cells,31%
same,Amount of lipid peroxides (% of the irradiated control),Jurkat cells; UVB 240 mJ/cm^2+UVA 3.5 J/cm^2,83 % of the irradiated control
"O=c1c(O)c(-c2ccc(O)c(O)c2)oc2cc(O)cc(O)c12 [Quercetin, quercetin]",Amount of ROS DFU/OD540 (mean ± standard deviation),[1]; 10 μM quercetin,84549.570 ± 9476.724 DFU/OD540
same,inhibition at 10 µM,"[1]; Homo sapiens, Keratinocyte, 10 μM quercetin, 100 μM H2O2, read-out: Inhibition relative to the H2O2 control (ROS)",71%
